Source: ChEMBL document CHEMBL1139872, “A high-throughput screen for aggregation-based inhibition in a large compound library” (J Med Chem, 2007)

What was measured:
Beta-lactamase [1] = molecular target: T1, Beta-lactamase (Escherichia coli K-12, UniProt P00811)
Description: Aggregate based-inhibition of Escherichia coli AmpC beta lactamase using stringent assay conditions in presence of 0.01% Triton X-100 detergent

Beta-lactamase [2] = molecular target: T1, Beta-lactamase; assay: Inhibition of Escherichia coli AmpC beta lactamase using relaxed assay conditions in presence of 0.00001% Triton X-100 detergent

T1 sequence (P00811 whole entry): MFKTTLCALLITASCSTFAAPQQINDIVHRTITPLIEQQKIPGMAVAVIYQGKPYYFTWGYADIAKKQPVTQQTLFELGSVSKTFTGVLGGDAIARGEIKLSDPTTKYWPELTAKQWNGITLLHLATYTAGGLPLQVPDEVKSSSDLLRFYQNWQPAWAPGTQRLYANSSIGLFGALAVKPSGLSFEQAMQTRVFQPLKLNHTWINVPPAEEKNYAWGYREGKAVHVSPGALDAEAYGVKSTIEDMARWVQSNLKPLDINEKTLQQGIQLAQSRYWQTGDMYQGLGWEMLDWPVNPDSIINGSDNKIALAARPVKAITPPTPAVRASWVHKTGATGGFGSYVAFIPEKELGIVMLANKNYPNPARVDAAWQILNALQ

SMILES: Fc1c(F)c(F)c(CSc2nc3ccccc3[nH]2)c(F)c1F
- IC50 (Beta-lactamase [1]): > 300 µM
- IC50 (Beta-lactamase [2]): 130 µM

SMILES: Cc1ccc2nc(-c3ccccc3)cc(O)c2c1
- IC50 (Beta-lactamase [1]): > 100 µM
- IC50 (Beta-lactamase [2]): > 100 µM

SMILES: O=C(Nc1ccc(Oc2ccc(NC(=O)c3ccco3)c(NC(=O)c3ccco3)c2)cc1)c1ccco1
- IC50 (Beta-lactamase [1]): 40 µM
- IC50 (Beta-lactamase [2]): 20 µM

SMILES: O=C(Nc1cccc2ccccc12)c1ccc(Br)o1
- IC50 (Beta-lactamase [1]): > 200 µM
- IC50 (Beta-lactamase [2]): 120 µM

SMILES: COc1c(F)c(F)c(C(=O)Nc2ccc(NC(=O)c3ccco3)cc2)c(F)c1F
- IC50 (Beta-lactamase [1]): > 66 µM
- IC50 (Beta-lactamase [2]): 20 µM

SMILES: Cc1cccc(OCC(=O)Nc2cccc(-c3nnc(-c4ccccc4)o3)c2)c1C
- IC50 (Beta-lactamase [1]): > 66 µM
- IC50 (Beta-lactamase [2]): 13 µM

SMILES: O=c1[nH]c2cc(Cl)ccc2c(O)c1-c1cccc(Oc2ccccc2)c1
- IC50 (Beta-lactamase [1]): 126 µM
- IC50 (Beta-lactamase [2]): 22 µM

SMILES: Clc1ccccc1C(c1ccccc1)(c1ccccc1)n1ccnc1 [CLOTRIMAZOLE]
- IC50 (Beta-lactamase [1]): 150 µM
- IC50 (Beta-lactamase [2]): 35 µM

SMILES: Cc1cc2c(C(C)C)c(O)c(O)c(C=O)c2c(O)c1-c1c(C)cc2c(C(C)C)c(O)c(O)c(C=O)c2c1O [GOSSYPOL]
- IC50 (Beta-lactamase [1]): 82 µM
- IC50 (Beta-lactamase [2]): 46 µM

SMILES: Clc1ccc(CSC(Cn2ccnc2)c2ccc(Cl)cc2Cl)cc1 (stereo not given) [SULCONAZOLE]
- IC50 (Beta-lactamase [1]): 100 µM
- IC50 (Beta-lactamase [2]): 20 µM
